Experimental data taken from BindingDB's records for doi:10.1021/acs.jmedchem.7b00315 (St. John'S University, 2018).

Assay: Inhibition of GP2b/3a in human platelet-rich plasma assessed as reduction in collagen-induced platelet aggregation preincubated for 1 min followed by collagen addition by aggregometric analysis

SMILES	IC50
CCOC(=O)CC1CCN(C(=O)CC(CC)NC(=O)c2ccc(C(=N)N3CCSC3)cc2F)CC1 (stereo not drawn)	0.05 µM
CCOC(=O)CC1CCN(C(=O)C(C)(C)[C@@H](CC)NC(=O)c2ccc(C(=N)N3CCSC3)cc2F)CC1 [(1-{3-[2-Fluoro-4-(imino-thiazolidin-3-yl-methyl)-benzoylamino]-2,2-dimethyl-pentanoyl}-piperidin-4-yl)-acetic acid ethyl ester(NSL-96184)]	0.022 µM
CCOC(=O)CC1CCN(C(=O)C(C)(C)[C@H](CC)NC(=O)c2ccc(C(=N)N3CCSC3)cc2F)CC1	3.1 µM
